# Values of other authors in paper PMC7365549 (ACS Omega, 2020).
# Tests used:
# 5-HT3 = conditions: read-out: Ki, binding to 5-HT3 receptor
# [1] = target: T1, human serotonin receptor 5-HT3 (Homo sapiens, UniProt P46098); conditions: read-out: Inhibition Constants (Ki) 5-HT3; comparison values
# T1 sequence (P46098 24-478): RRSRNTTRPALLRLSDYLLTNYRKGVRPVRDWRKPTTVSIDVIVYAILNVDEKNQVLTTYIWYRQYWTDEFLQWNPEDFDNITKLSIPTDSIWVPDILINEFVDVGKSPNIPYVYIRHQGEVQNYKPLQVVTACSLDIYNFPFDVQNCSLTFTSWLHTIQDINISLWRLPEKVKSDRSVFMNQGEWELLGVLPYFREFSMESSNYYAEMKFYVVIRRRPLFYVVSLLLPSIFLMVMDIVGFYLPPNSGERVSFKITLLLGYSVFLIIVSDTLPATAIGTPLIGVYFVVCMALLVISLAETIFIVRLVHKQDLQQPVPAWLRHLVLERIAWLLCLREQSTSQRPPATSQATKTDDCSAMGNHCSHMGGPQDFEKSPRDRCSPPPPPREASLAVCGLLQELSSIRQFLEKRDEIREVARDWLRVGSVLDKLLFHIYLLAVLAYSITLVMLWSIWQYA
# [2] = target: human serotonin receptor 5-HT2A (Homo sapiens, UniProt P28223); conditions: read-out: Inhibition Constants (Ki) 5-HT2A; comparison values
# human serotonin receptor 5-HT2A, sequence (P28223 whole entry): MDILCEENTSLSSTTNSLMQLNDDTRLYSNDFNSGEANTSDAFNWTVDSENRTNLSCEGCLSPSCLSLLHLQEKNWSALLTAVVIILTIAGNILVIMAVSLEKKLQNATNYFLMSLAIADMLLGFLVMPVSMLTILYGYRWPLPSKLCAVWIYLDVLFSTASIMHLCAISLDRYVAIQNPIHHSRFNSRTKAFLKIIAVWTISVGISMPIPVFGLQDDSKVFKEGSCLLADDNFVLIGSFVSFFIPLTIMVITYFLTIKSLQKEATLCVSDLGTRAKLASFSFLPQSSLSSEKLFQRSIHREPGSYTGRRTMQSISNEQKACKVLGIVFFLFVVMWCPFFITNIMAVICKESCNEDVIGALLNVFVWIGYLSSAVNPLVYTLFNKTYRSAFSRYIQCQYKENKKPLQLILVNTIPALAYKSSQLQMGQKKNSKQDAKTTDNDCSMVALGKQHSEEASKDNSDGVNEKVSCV
# [3] = target: T2, human serotonin receptor 5-HT1A (Homo sapiens, UniProt P08908); conditions: read-out: Inhibition Constants (Ki) 5-HT1A; comparison values
# T2 sequence (P08908 1-422): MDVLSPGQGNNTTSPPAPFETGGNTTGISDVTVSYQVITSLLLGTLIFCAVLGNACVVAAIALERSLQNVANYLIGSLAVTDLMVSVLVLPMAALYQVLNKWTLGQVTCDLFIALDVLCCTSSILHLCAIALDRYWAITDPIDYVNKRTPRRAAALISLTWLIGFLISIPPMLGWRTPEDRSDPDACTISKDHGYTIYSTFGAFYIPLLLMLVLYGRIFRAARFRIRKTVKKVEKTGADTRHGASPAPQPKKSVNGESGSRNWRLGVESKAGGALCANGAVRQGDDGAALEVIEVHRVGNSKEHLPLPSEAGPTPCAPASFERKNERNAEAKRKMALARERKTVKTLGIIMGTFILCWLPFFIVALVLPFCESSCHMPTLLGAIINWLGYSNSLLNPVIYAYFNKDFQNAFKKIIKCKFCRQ
SMILES,Ki (5-HT3),Ki [1],Ki [2],Ki [3]
"C[N+](C)(C)CCc1c[nH]c2ccc([O-])cc12 [Bufotenidine, bufotenidine]",0.017 µM,,,
CN(C)CCc1c[nH]c2cccc(O)c12 [psilocin],,> 10 µM,,
CN(C)CCc1c[nH]c2cccc(OP(=O)(O)O)c12 [psilocybin],,> 10 µM,> 10 µM,> 10 µM
